Here are results for 17 compounds from patent publication US10138226B2, “Benzimidazol-2-amines as MIDH1 inhibitors” (Bayer Pharma Aktiengesellschaft, priority 2014, dated 2018).

The target of the assay is IDH1 R132H enzyme (Homo sapiens (Human), UniProt O75874, R132H). The assay can be described thus: Mutant IDH1 R132H biochemical assay. Also: 1.5 nM enzyme. The settings on record: NADPH consumption, luminescent readout, 250 μM α-KG, 1 μM NADPH, 32° C., 30 minutes, test range 0.002-10 μM. The procedure: mIDH1 catalyzes the NADPH-dependent reduction of alpha-ketoglutarate (α-KG) to (2R)-2-hydroxyglutarate (2-HG). NADPH consumption was measured by luminescent readout.
The biochemical reactions were performed at 32° C. in 384-well plates using a reaction volume of 41 μl and the following assay buffer conditions: 50 mM Tris pH 7.5, 100 mM NaCl, 20 mM MgCl2, 0.05% BSA, 0.01% Brij, 1 μM NADPH, and 250 μM α-KG. […] Test compounds were used in a concentration range between 0.002 and 10 μM. The final DMSO concentration was 2.4%.
The reaction was incubated for 30 minutes, then 40 μl of detection mix (0.75 μg/ml Luciferase, 0.02 U/ml Oxidoreductase, 4 μg/ml FMN, 2 μl/ml Decanal/Ethanol, 50 mM Tris pH 7.5, 0.5% Glycerin, 0.01% Tween-20, 0.05% BSA) was added. Luminescence was measured on a luminescent reader (10 seconds measuring time, 1 second integration period, 30% sensitivity). The decrease in luminescence is proportional to mIDH1 activity. IC50 values are determined by interpolation from plots of relative luminescence versus inhibitor concentration.

Chain of IDH1 R132H enzyme (O75874 whole entry R132H): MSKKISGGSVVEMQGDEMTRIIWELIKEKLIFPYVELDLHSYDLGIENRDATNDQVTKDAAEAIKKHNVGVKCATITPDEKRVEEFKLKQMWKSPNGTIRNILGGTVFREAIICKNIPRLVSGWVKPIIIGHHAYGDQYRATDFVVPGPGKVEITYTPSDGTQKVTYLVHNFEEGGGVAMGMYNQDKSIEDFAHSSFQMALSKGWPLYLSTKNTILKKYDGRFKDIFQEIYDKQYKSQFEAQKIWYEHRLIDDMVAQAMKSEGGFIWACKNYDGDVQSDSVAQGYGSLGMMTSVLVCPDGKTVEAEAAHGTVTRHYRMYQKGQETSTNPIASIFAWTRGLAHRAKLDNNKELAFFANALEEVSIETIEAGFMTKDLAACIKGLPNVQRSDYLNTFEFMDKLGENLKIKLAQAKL

With `C[C@@H]1C[C@H](n2c(Nc3ccc(OC(F)(F)F)cc3)nc3ccc(C(=O)N(C)CC(=O)O)cc32)CC(C)(C)C1` (racemic) [Example 2-11, (±) N-methyl-N-[(2-{[4-(trifluoromethoxy)phenyl]amino}-1-[(cis)-3,3,5-trimethylcyclohexyl]-1H-benzimidazol-6-yl)carbonyl]glycine], half-maximal inhibition (IC50) was put at 7.6 µM.

As to `C[C@@H]1C[C@H](n2c(Nc3ccc(OC(F)(F)F)cc3)nc3ccc(C(=O)NC4CCCC4)cc32)CC(C)(C)C1` (racemic) [Example 2-5, (±) N-cyclopentyl-2-{[4-(trifluoromethoxy)phenyl]amino}-1-[(cis)-3,3,5-trimethylcyclohexyl]-1H-benzimidazole-6-carboxamide], the IC50 was ≥ 10 µM.

Consider `C[C@@H]1C[C@H](n2c(Nc3ccc(OC(F)(F)F)cc3)nc3ccc(C(=O)NCc4ccc(F)cc4)cc32)CC(C)(C)C1` (racemic) [Example 2-21, (±) N-(4-fluorobenzyl)-2-{[4-(trifluoromethoxy)phenyl]amino}-1-[(cis)-3,3,5-trimethylcyclohexyl]-1H-benzimidazole-6-carboxamide], for which the IC50 was ≥ 10 µM.

With `C[C@@H]1C[C@H](n2c(Nc3ccc(OC(F)(F)F)cc3)nc3ccc(C(=O)NC4CC4)cc32)CC(C)(C)C1` (single isomer, unassigned; enantiomer a) [Example 2-23-1, N-cyclopropyl-2-{[4-(trifluoromethoxy)phenyl]amino}-1-[(cis)-3,3,5-trimethylcyclohexyl]-1H-benzimidazole-6-carboxamide, enantiomer A], the IC50 is ≥ 10 µM.

Turning to `C[C@@H]1C[C@H](n2c(Nc3ccc(OC(F)(F)F)cc3)nc3ccc(C(=O)NC4CC4)cc32)CC(C)(C)C1` (racemic) [Example 2-23, (±) N-cyclopropyl-2-{[4-(trifluoromethoxy)phenyl]amino}-1-[(cis)-3,3,5-trimethylcyclohexyl]-1H-benzimidazole-6-carboxamide], the IC50 is ≥ 10 µM.

As to `C[C@@H]1C[C@H](n2c(Nc3ccc(OC(F)(F)F)cc3)nc3ccc(C(=O)NS(C)(=O)=O)cc32)CC(C)(C)C1` (racemic) [Example 2-19, (±) N-(methylsulfonyl)-2-{[4-(trifluoromethoxy)phenyl]amino}-1-[(cis)-3,3,5-trimethylcyclohexyl]-1H-benzimidazole-6-carboxamide], the IC50 was ≥ 10 µM.

`COC(=O)CCNC(=O)c1ccc2nc(Nc3ccc(OC(F)(F)F)cc3)n([C@H]3C[C@@H](C)CC(C)(C)C3)c2c1` (racemic) [Example 2-14, (±) methyl N-[(2-{[4-(trifluoromethoxy)phenyl]amino}-1-[(cis)-3,3,5-trimethylcyclohexyl]-1H-benzimidazol-6-yl)carbonyl]-β-alaninate]: the IC50 was ≥ 10 µM.

Regarding `CCOC(=O)CCN(C)C(=O)c1ccc2nc(Nc3ccc(OC(F)(F)F)cc3)n([C@H]3C[C@@H](C)CC(C)(C)C3)c2c1` (racemic) [Example 2-24, (±) ethyl N-methyl-N-[(2-{[4-(trifluoromethoxy)phenyl]amino}-1-[(cis)-3,3,5-trimethylcyclohexyl]-1H-benzimidazol-6-yl)carbonyl]-β-alaninate], the IC50 is ≥ 10 µM.

Turning to `CNC(=O)c1ccc2nc(Nc3ccc(OC(F)(F)F)cc3)n([C@H]3C[C@@H](C)CC(C)(C)C3)c2c1` (racemic) [Example 2-8, (±) N-methyl-2-{[4-(trifluoromethoxy)phenyl]amino}-1-[(cis)-3,3,5-trimethylcyclohexyl]-1H-benzimidazole-6-carboxamide], the IC50 is 0.43 µM.

In turn, `CNC(=O)c1ccc2nc(Nc3ccc(OC(F)(F)F)cc3)n([C@H]3C[C@@H](C)CC(C)(C)C3)c2c1` (single isomer, unassigned; enantiomer a) [Example 2-8-1, N-methyl-2-{[4-(trifluoromethoxy)phenyl]amino}-1-[(cis)-3,3,5-trimethylcyclohexyl]-1H-benzimidazole-6-carboxamide, enantiomer A] displayed an IC50 of 0.92 µM. This IC50 lies about 2.1-fold higher than the previous one.

`COC(=O)CNC(=O)c1ccc2nc(Nc3ccc(OC(F)(F)F)cc3)n([C@H]3C[C@@H](C)CC(C)(C)C3)c2c1` (racemic) [Example 2-10, (±) methyl N-[(2-{[4-(trifluoromethoxy)phenyl]amino}-1-[(cis)-3,3,5-trimethylcyclohexyl]-1H-benzimidazol-6-yl)carbonyl]glycinate] gave an IC50 of 6.6 µM.

On to `CNC(=O)c1ccc2nc(Nc3ccc(OC(F)(F)F)cc3)n([C@H]3C[C@@H](C)CC(C)(C)C3)c2c1` (single isomer, unassigned; enantiomer b) [Example 2-8-2, N-methyl-2-{[4-(trifluoromethoxy)phenyl]amino}-1-[(cis)-3,3,5-trimethylcyclohexyl]-1H-benzimidazole-6-carboxamide, enantiomer B], for which the IC50 stood at 1.2 µM.

For `C[C@@H]1C[C@H](n2c(Nc3ccc(OC(F)(F)F)cc3)nc3ccc(C(=O)NCCO)cc32)CC(C)(C)C1` (racemic) [Example 2-13, (±) N-(2-hydroxyethyl)-2-{[4-(trifluoromethoxy)phenyl]amino}-1-[(cis)-3,3,5-trimethylcyclohexyl]-1H-benzimidazole-6-carboxamide], the midpoint of inhibition, the IC50, lay at 2.2 µM.

In the case of `C[C@@H]1C[C@H](n2c(Nc3ccc(OC(F)(F)F)cc3)nc3ccc(C(=O)NC4CC4)cc32)CC(C)(C)C1` (single isomer, unassigned; enantiomer b) [Example 2-23-2, N-cyclopropyl-2-{[4-(trifluoromethoxy)phenyl]amino}-1-[(cis)-3,3,5-trimethylcyclohexyl]-1H-benzimidazole-6-carboxamide, enantiomer B], the IC50 was ≥ 10 µM.

Regarding `C[C@@H]1C[C@H](n2c(Nc3ccc(OC(F)(F)F)cc3)nc3ccc(C(=O)Nc4ccc(F)cc4)cc32)CC(C)(C)C1` (racemic) [Example 2-22, (±) N-(4-fluorophenyl)-2-{[4-(trifluoromethoxy)phenyl]amino}-1-[(cis)-3,3,5-trimethylcyclohexyl]-1H-benzimidazole-6-carboxamide], the IC50 is ≥ 10 µM.

As for `C[C@@H]1C[C@H](n2c(Nc3ccc(OC(F)(F)F)cc3)nc3ccc(C(=O)NCCC(=O)O)cc32)CC(C)(C)C1` (racemic) [Example 2-15, (±) N-[(2-{[4-(trifluoromethoxy)phenyl]amino}-1-[(cis)-3,3,5-trimethylcyclohexyl]-1H-benzimidazol-6-yl)carbonyl]-β-alanine], the IC50 was ≥ 10 µM.

`C[C@H]1C[C@H](n2c(Nc3ccc(OC(F)(F)F)cc3)nc3ccc(C(=O)N(C)C)cc32)CC(C)(C)C1` (racemic) [Example 2-25, (±) N,N-dimethyl-2-{[4-(trifluoromethoxy)phenyl]amino}-1-[(trans)-3,3,5-trimethylcyclohexyl]-1H-benzimidazole-6-carboxamide] showed an IC50 of 0.47 µM.

As usually defined, the IC50 is the concentration needed to halve the response being measured. The low end stands for inhibition by little substance, the high end for a need for much substance.
